The inhibition is how much of the control response was suppressed. A lower inhibition goes with a weak effect.

Assay [1] addresses T1, cyclooxygenase-1 (U-937 microsomes) (Homo sapiens, UniProt P23219).
T1 construct: host or cells: microsomal fraction of U-937 cells
Kind of assay: Microsomal cyclooxygenase assay, U-937 microsomes. It is filed as biochemical. Particulars: 20 μM arachidonic acid. The protocol: COX-1 cells are grown and maintained in culture as described above, washed in a suitable buffer, such as PBS, and cell pellets or concentrates stored, preferably at −80° C. […] The cell homogenate is then concentrated and resuspended. In our preferred procedure the cell homogenate is centrifuged at 10,000× g for 10 minutes at 4° C. The supernatant fraction is then recentrifuged at 100,000× g for 2 hours at 4° C., and the resulting microsomal pellet resuspended in a suitable buffer, such as 0.1 M Tris-HCl, 1 mM EDTA, pH 7.4 to a protein concentration of approximately 1 to 10 mg/ml. Aliquots of osteosarcoma microsomal preparations may be stored at reduced temperature and thawed prior to use.
(§1) Microsomal preparations from Human osteosarcoma and U937 cells are diluted in buffer, such as 0.1 M Tris-HCl, 10 mM EDTA, pH 7.4, (Buffer A) to a protein concentration of 50 to 500 µg/ml. […] Typically, assays are performed in either duplicate or triplicate. Peroxide-free arachidonic acid (CAYMAN) in Buffer A is then added to a final concentration of 20 μM arachidonic acid, followed by incubation, preferably at room temperature for 10 to 60 minutes. Control samples contained ethanol or other vehicle instead of arachidonic acid. Following incubation, the reaction was terminated by addition of HCl or other mineral acid. Prior to analysis of PGE2 levels, samples were neutralized. Levels of PGE2 in samples may be quantitated as described for the whole cell cyclooxygenase assay.
U-937 cells were grown and maintained in culture as described above, washed in PBS, and cell pellets frozen at −80° C. […] The cell homogenate was then centrifuged at 10,000× g for 10 minutes at 4° C. The supernatant fraction was then recentrifuged at 100,000× g for 2 hours at 4° C., and the resulting microsomal pellet resuspended in 0.1 M Tris-HCl, 1 mM EDTA, pH 7.4 to a protein concentration of approximately 4 mg/ml. 500 μl aliquots of osteosarcoma microsomal preparations were stored at −80° C. and thawed on ice immediately prior to use.
All subsequent assay steps, including the dilution of stock solutions of test compounds, were automated using the BIOMEK 100 (BIORAD). 5 μl of test compound or DMSO vehicle was added, with mixing, to 20 μl of buffer A in a 96-well minitube plate (BECKMAN). 200 μl of microsome suspension was then added, followed by mixing and incubation for 5 minutes at room temperature. Assays were performed in either duplicate or triplicate. […] of peroxide-free arachidonic acid (CAYMAN) in buffer A is then added to a final concentration of 20 μM aracidonic acid, with mixing, followed by incubation at room temperature for 40 minutes. Control samples contained ethanol vehicle instead of arachidonic acid. Following the incubation period, the reaction was terminated by the addition of 25 μl of 1N HCl, with mixing. Prior to analysis of PGE2 levels, samples were neutralized by the addition of 25 μl of 1 N NaOH. Levels of PGE2 in samples were quantitated by enzyme immunoassay (CAYMAN) as described for the whole cell cyclooxygenase assay.

Assay [2] concerns the target T2, cyclooxygenase-2 (osteosarcoma 143.98.2 microsomes) (Homo sapiens, UniProt P35354).
T2 construct: The cell homogenates were then subjected to a differential centrifugation protocol to yield an enriched microsomal preparation; endogenous in cells; host or cells: microsomal fraction of human osteosarcoma 143.98.2 cells
T2 sequence (P35354 18-604): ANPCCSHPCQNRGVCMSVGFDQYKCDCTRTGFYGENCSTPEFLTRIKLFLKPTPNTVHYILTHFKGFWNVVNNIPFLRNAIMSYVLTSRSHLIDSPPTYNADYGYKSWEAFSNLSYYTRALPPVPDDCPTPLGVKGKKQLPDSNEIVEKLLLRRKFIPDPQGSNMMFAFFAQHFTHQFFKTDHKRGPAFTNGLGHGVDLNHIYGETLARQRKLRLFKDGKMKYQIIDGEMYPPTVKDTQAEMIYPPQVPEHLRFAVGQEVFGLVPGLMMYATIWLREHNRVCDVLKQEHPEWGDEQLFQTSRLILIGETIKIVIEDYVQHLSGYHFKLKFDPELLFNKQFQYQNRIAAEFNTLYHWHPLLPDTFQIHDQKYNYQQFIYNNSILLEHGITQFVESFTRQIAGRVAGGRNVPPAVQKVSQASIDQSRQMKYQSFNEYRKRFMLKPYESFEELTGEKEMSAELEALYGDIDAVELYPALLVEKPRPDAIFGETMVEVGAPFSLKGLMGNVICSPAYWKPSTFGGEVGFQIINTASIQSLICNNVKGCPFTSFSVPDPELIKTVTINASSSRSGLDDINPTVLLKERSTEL
The assay is described as follows: Microsomal cyclooxygenase assay, osteosarcoma 143.98.2 microsomes. Type of assay: biochemical. Particulars: 20 μM arachidonic acid. The protocol: Human osteosarcoma cells may be grown and maintained in culture as described above. Approximately 10^5 to 10^7 cells are plated in tissue culture plates such as available from NUNCLON and maintained in culture for 2 to 7 days. Cells may be washed with a suitable buffer such phosphate buffered saline, (PBS), pH 7.2. Cells are then removed from the plate, preferably by scraping into PBS. Samples may then be concentrated, such as by centrifuging at 400× g for 10 minutes at 4° C. Cell pellets or other concentrates are either stored at a suitable reduced temperature such as −80° C., or processed immediately. All further manipulations of the cells are preferably performed at 0-4° C. […] Enriched microsomal preparations are then prepared, such as by differential centrifugation to yield an enriched microsomal preparation. In our preferred procedure, the first step consists of four sequential centrifugations of the cell homogenate at 10,000× g for 10 min at 4° C. After each centrifugation at 10,000×.g, the supernatant is retained and recentrifuged. Following the fourth centrifugation, the supernatant is centrifuged at 100,000× g for 60-90 min at 4° C. to pellet the microsomal fraction. […] The resulting microsomal suspension is recentrifuged such as at 100,000× g for 90 min at 4° C. to recover the microsomes. Following this centrifugation the microsomal pellet is resuspended in a stabilizing buffer, such as 0.1 M Tris-Cl, pH 7.4, containing 10 mM EDTA at a protein concentration of approximately 2-5 mg/ml. Aliquots of osteosarcoma microsomal preparations may be stored at low temperature, such as at −80° C. and thawed prior to use.
as §1
Cells were washed twice with 100 ml of phosphate buffered saline, pH 7.2, (PBS) and then scraped from the plate with a sterile rubber scraper into PBS. Samples were then centrifuged at 400× g for 10 minutes at 4° C. Cell pellets were either stored at −80° C. until use or processed immediately. All further manipulations of the cells were performed at 0-4° C. […] The cell homogenates were then subjected to a differential centrifugation protocol to yield an enriched microsomal preparation. The first step consisted of four sequential centrifugations of the cell homogenate at 10,000× g for 10 min at 4° C. After each centrifugation at 10,000× g the supernatant was retained and recentrifuged. Following the fourth centrifugation, the supernatant was centrifuged at 100,000× g for 60-90 min at 4° C. to pellet the microsomal fraction. […] The resulting microsomal suspension was recentrifuged at 100,000× g for 90 min at 4° C. to recover the microsomes. […] 500 μl aliquots of osteosarcoma microsomal preparations were stored at −80° C. and thawed on ice immediately prior to use.
All subsequent assay steps, including the dilution of stock solutions of test compounds, were automated using the BIOMEK 100 (BIORAD). 5 μl of test compound or DMSO vehicle was added, with mixing, to 20 μl of buffer A in a 96-well minitube plate (BECKMAN).

In assay [3] the target is T3, cyclooxygenase-1 (U-937 cells) (Homo sapiens, UniProt P23219).
T3 construct: the appropriate number of U-937 cells were removed from spinner cultures and centrifuged; host or cells: U-937 human histiocytic lymphoma cells (intact)
T3 sequence (P23219 24-599): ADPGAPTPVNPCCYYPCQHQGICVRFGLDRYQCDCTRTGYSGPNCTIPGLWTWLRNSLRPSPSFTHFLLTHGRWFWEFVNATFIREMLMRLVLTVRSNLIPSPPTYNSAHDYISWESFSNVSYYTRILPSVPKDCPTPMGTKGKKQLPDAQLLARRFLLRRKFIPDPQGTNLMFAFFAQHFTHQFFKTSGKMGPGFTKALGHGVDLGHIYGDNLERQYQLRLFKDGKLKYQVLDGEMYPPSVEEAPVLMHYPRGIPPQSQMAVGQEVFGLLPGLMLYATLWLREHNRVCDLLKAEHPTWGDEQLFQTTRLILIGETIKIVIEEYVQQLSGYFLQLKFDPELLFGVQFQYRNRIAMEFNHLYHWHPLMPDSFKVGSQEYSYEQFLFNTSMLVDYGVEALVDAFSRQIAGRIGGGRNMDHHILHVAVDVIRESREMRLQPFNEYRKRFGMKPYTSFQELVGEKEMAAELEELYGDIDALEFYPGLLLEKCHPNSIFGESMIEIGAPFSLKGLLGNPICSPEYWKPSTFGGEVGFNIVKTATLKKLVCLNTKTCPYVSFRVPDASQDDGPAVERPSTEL
The assay is described as follows: Whole cell cyclooxygenase assay, PGE2 synthesis by U-937 cells in response to exogenous arachidonic acid. Type of assay: cell-based. The procedure: Such cells are hereinafter described as COX-1 cells. Prior to assay, the appropriate number of COX-1 cells (10^5 to 10^7 cells/ml) are removed from cultures and concentrated using a technique such as by centrifugation at 300× g for 10 minutes. The supernatant is decanted and cells are washed in a suitable buffer. […] Following incubation of human osteosarcoma cells or COX-1 cells in a suitable buffer, a test compound and/or vehicle samples (such as DMSO) is added, and the resulting composition gently mixed. Preferably the assay is performed in triplicate. Arachidonic acid is then added in proportions as described above. […] Control samples should contain ethanol or other vehicle instead of arachidonic acid. […] For osteosarcoma cells, reactions may be stopped by the addition HCl or other acid, preferably combined with mixing, or by the rapid removal of media directly from cell monolayers. For U-937 cells, reactions may be advantageously be performed in multiwell dishes or microcentrifuge tubes and stopped by the addition of HCl or another mineral acid. Typically, samples assayed in 24-multidishes are then transferred to microcentrifuge tubes, and all samples frozen on dry ice. Similarly, samples are typically stored at -20° C. or below prior to analysis of PGE2 levels. […] Samples are then preferably mixed, such as by vortexing, and PGE2 levels measured using a PGE2 enzyme immunoassay, such as is commercially available from CAYMAN. We have advantageously conducted the plating, washing and color development steps as an automated sequence using a BIOMEK 1000 (BECKMAN). […] Levels of PGE2 are calculated from the standard curve, and may optionally determined using BECKMAN IMMUNOFIT EIA/RIA analysis software. […] Inhibition of PGE2 synthesis by test compounds is calculated between PGE2 levels in samples incubated in the absence or presence of […]. […] For routine subculturing, cells were diluted in fresh medium and transferred to fresh flasks. […] The supernatant was decanted and cells washed in 50 ml of HBSS prewarmed to 37° C. Cells were again pelleted at 300× g for 10 minutes and resuspended in prewarmed HBSS to a final cell density of approximately 1.5×10^6 cells/ml. 1 ml aliquots of cell suspension were transferred to 1.5 ml microcentrifuge tubes or 24-well multidishes (Nunclon). […] All assays were performed in triplicate. […] Control samples contained ethanol vehicle instead of arachidonic acid. Samples were again gently mixed and incubated for a further 10 minutes at 37° C. […] For U-937 cells, reactions in multiwell dishes or microcentrifuge tubes were stopped by the addition of 100 μl of 1N HCl, with mixing. Samples assayed in 24-multidishes were then transferred to microcentrifuge tubes, and all samples were frozen on dry ice. Samples were stored at -20° C. prior to analysis of PGE2 levels. […] Samples were then mixed by vortexing, and PGE2 levels measured using a PGE2 enzyme immunoassay (CAYMAN) according to the manufacturers instructions. The plating, washing and colour development steps of this procedure were automated using a BIOMEK 1000 (BECKMAN). […] Levels of PGE2 were calculated from the standard curve determined using BECKMAN IMMUNOFIT EIA/RIA analysis software.

The next assay relates to osteosarcoma 143 cells. The assay is described as follows: PGE2 synthesis by osteosarcoma 143 cells in response to arachidonic acid after treatment with growth factors/cytokines. It is filed as cell-based, human. Particulars: 10 pg/ml; within a 3-hour period, 1% serum; relative to cells grown in the absence of these factors.

T1 sequence (P23219 24-599): as above

`CS(=O)(=O)c1ccc(-c2cc(Br)sc2-c2ccc(F)cc2)cc1` [DuP-697] gave an inhibition at 0.1 µM in assay [1] (drug 100 nM) of 6%. Moreover, the inhibition at 3 µM in assay [1] (drug 3 uM) is 48%.

Regarding `CC(=O)c1ccc(NS(C)(=O)=O)c(Oc2ccc(F)cc2F)c1` [FK-3311], the figures for the “143.98.2 % Inhibition” value in assay [2] (drug 100 nM) and in assay [2] (drug 3 uM) were 20% and 26%, respectively. Also, the “U-937 % Inhibition” value in assay [1] (drug 100 nM) and in assay [1] (drug 3 uM) was 0% throughout.

Take `CS(=O)(=O)Nc1cc2c(cc1Oc1ccc(F)cc1F)C(=O)CC2` [Flosulide]: in assay [1] (drug 100 nM), the inhibition at 0.1 µM was 0%. In addition, the inhibition at 3 µM in assay [1] (drug 3 uM) is 0%.

As for `O=C(O)c1ccccc1Nc1cccc(C(F)(F)F)c1` [Flufenamic], the “143.98.2 % Inhibition” value in assay [2] (drug 100 nM) is recorded as 16%; in assay [2] (drug 3 uM), 36%. Further, the “U-937 % Inhibition” value in assay [1] (drug 100 nM) is given as 5%; in assay [1] (drug 3 uM) it was 0%.

Turning to `CC(C(=O)O)c1ccc(-c2ccccc2)c(F)c1` (centres unmarked) [Fluribprofen], the “U-937 % Inhibition” value in assay [1] (drug 100 nM) was determined as 57%; in assay [1] (drug 3 uM), 89%.

On to `CS(=O)(=O)Nc1ccc([N+](=O)[O-])cc1OC1CCCCC1` [NS-398], for which, in assay [1] (drug 100 nM), 0.1 µM produced 0% inhibition. Also, at 3 µM the inhibition in assay [1] (drug 3 uM) was 0%. The “U-937 PGE2” value in assay [3] (sample 0.3 nM) is on record as 18.3 ng/10^6 cells; in assay [3] (sample 1.0 nM), 17.7 ng/10^6 cells; in assay [3] (sample 3.0 nM), 18.3 ng/10^6 cells; in assay [3] (sample 10 nM), 20.4 ng/10^6 cells; in assay [3] (sample 30.0 nM), 17.7 ng/10^6 cells; in assay [3] (sample 100 nM), 18.9 ng/10^6 cells.

`CSc1ccc(/C=C2/C(C)=C(CC(=O)O)c3cc(F)ccc32)cc1` [Sulindac sulfide] came in with an inhibition at 0.1 µM in assay [1] (drug 100 nM) of 0%. Besides, in assay [1] (drug 3 uM), the inhibition at 3 µM was 4%.

For the compound `Cc1cc(CC(=O)O)n(C)c1C(=O)c1ccc(Cl)cc1` [Zomipirac], the “143.98.2 % Inhibition” value in assay [2] (drug 100 nM) came to 45%; in assay [2] (drug 3 uM) it was 66%. Also, the entries for the “U-937 % Inhibition” value in assay [1] (drug 100 nM) and in assay [1] (drug 3 uM) were 30% and 67%, respectively.

For the compound “IL1-β: human recombinant IL1-β (R and D systems Inc.)”, the “levels of PGE2 synthesis by osteosarcoma 143 cells in response to arachidonic acid” value in the assay on osteosarcoma 143 cells is reported as “increased”.
